Patent US9469615B2, “Quinoxalines and AZA-quinoxalines as CRTH2 receptor modulators” (Merck Sharp & Dohme Corp., priority 2010, dated 2016)

These molecules were tested against T1, hCRTH2 (Homo sapiens, UniProt Q9Y5Y4) (assay: Radioligand binding assay ([3H]PGD2 competition, HEK-hCRTH2 membranes)). Details: [3H]PGD2 binding, rated A-E (Table A).
T1 construct: expressed in transfected cells; host or cells: HEK (human embryonic kidney) cells expressing hCRTH2; membrane preparation
T1 sequence (Q9Y5Y4 1-395): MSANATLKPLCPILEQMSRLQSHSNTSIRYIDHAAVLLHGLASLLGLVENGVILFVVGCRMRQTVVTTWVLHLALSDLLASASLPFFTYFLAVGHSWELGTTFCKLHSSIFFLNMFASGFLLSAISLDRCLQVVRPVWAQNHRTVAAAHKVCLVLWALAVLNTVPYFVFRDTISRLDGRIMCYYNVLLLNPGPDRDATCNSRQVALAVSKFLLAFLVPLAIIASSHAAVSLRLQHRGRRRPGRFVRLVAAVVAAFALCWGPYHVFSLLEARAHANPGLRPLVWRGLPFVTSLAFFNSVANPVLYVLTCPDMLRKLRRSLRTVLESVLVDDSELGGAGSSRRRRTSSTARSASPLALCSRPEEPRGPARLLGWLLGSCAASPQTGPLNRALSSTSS
How it was run: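 Using membranes of an HEK line stably carrying hCRTH2, ligands were tested against [3H]PGD2 (3.0 nM) in pH 7.4 Tris buffer containing 2 mM MnCl2 and 1 mM EDTA. After one hour at room temperature, filters were washed cold and counted.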

| Ki [nM] | Structure (SMILES) |
| --- | --- |
| 0.1 to 2 | O=C(O)CCCCc1nc2cc(C(=O)NCc3ccc(C(F)(F)F)cc3)ccc2nc1-c1ccccc1 [15C, 5-(3-phenyl-7-{[4-(trifluoromethyl)benzyl]carbamoyl}quinoxalin-2-yl)pentanoic acid] |
| 2.1 to 20 | O=C(O)CCCCc1nc2cc(C(=O)N3CCC(c4ncccn4)CC3)ccc2nc1-c1ccc(F)cc1 [compound 244, 3-(4-fluorophenyl)-7-[[4-(2-pyrimidinyl)-1-piperidinyl]carbonyl]-2-quinoxalinepentanoic acid] |
| 0.1 to 2 | CC(CCc1nc2cc(C(=O)N[C@@H](C)c3ccc(Cl)cc3)ccc2nc1-c1ccc(Cl)cc1)CC(=O)O (stereo partly shown) [17D] |
| 2.1 to 20 | O=C(O)CCCCc1nc2cc(C(=O)N3CCC3)ccc2nc1-c1ccc(F)cc1 [5S, 7-(1-azetidinylcarbonyl)-3-(4-fluorophenyl)-2-quinoxalinepentanoic acid] |
| 2.1 to 20 | O=C(O)CCCCc1nc2cc(C(=O)N3CCC(c4ccccc4)C3)ccc2nc1-c1cc(F)cc(F)c1 (stereo not shown) [26i, 3-(3,5-difluorophenyl)-7-[(3-phenyl-1-pyrrolidinyl)carbonyl]-2-quinoxalinepentanoic acid] |
| 0.1 to 2 | C[C@H](NC(=O)c1ccc2nc(-c3ccc(Cl)cc3)c(CCCCC(=O)O)nc2c1)c1cccc(F)c1 [compound 179, 3-(4-chlorophenyl)-7-[[[1(S)-(3-fluorophenyl)ethyl]amino]carbony!]-2-quinoxalinepentanoic acid] |
| 2.1 to 20 | O=C(O)CCCCc1nc2cc(C(=O)C3CC3)ccc2nc1-c1cccc(F)c1 [compound 3, 5-[7-(Cyclopropanecarbonyl)-3-(3-fluorophenyl)quinoxalin-2-yl]pentanoic Acid] |
| 2.1 to 20 | CC(CCc1nc2cc(C(=O)N[C@@H](c3ccccc3)C(F)(F)F)ccc2nc1-c1ccc(C(F)(F)F)cc1)CC(=O)O (stereo partly shown) [17S] |
| 0.1 to 2 | CC(CCCc1nc2cc(C(=O)N3CCC(c4ccccc4)CC3)ccc2nc1-c1ccc(Cl)cc1)C(=O)O (stereo not drawn) [compound 162, 3-(4-chlorophenyl)-alpha-methyl-7-[(4-phenyl-1-piperidinyl)carbonyl]-2-quinoxalinepentanoic acid] |
| 0.1 to 2 | O=C(O)CCCNc1nc2cc(C(=O)N[C@@H]3CCCc4ccccc43)ccc2nc1-c1ccccc1 [44i, (R)-4-((3-phenyl-7-((1,2,3,4-tetrahydronaphthalen-1-yl)carbamoyl)quinoxalin-2-yl)amino)butanoic acid] |
| 2.1 to 20 | O=C(O)CCCCc1nc2cc(C(=O)N3CCC(c4ccccc4)CC3)ccc2nc1-c1ccc(C(F)(F)F)nc1 [26K, 7-[(4-phenyl-1-piperidinyl)carbonyl]-3-[6-(trifluoromethyl)-3-pyridinyl]-2-quinoxalinepentanoic acid] |
| 0.1 to 2 | CC(CCCc1nc2cc(C(=O)NC3Cc4ccccc4C3)ccc2nc1-c1ccc(C(F)(F)F)cc1)C(=O)O (stereo not drawn) [18G, 7-[[(2,3-dihydro-1H-inden-2-yl)amino]carbonyl]-alpha-methyl-3-[4-(trifluoromethyl)phenyl]-2-quinoxalinepentanoic acid] |
| 2.1 to 20 | O=C(O)CCCCc1nc2cc(C(=O)N[C@H]3CCCc4cc(F)ccc43)ccc2nc1-c1ccc(Cl)cc1 [compound 185, 3-(4-chlorophenyl)-7-[[(6-fluoro-1,2,3,4-tetrahydro-1(S)-naphthalenyl)amino]carbonyl]2-quinoxalinepentanoic acid] |
| 2.1 to 20 | CC(CCCc1nc2cc(C(=O)NCc3cccc(F)c3)ccc2nc1-c1ccc(F)cc1)C(=O)O (stereo not drawn) [compound 203, 3-(4-fluorophenyl)-7-[[[(3-fluorophenyl)methyl]amino]carbonyl]-alpha-methyl-2-quinoxalinepentanoic acid] |

Same assay, conditions: [3H]PGD2 binding, values in text

| Ki [nM] | Structure (SMILES) |
| --- | --- |
| 3.2 | O=C(O)CCCCc1nc2cc(C(=O)C3CC3)ccc2nc1-c1cccc(F)c1 [compound 3, 5-[7-(Cyclopropanecarbonyl)-3-(3-fluorophenyl)quinoxalin-2-yl]pentanoic Acid] |

Same assay, conditions: [3H]PGD2 competition, Table B

| Ki [nM] | Structure (SMILES) |
| --- | --- |
| 20.1 to 200 | C[C@H](CCc1nc2cc(C(=O)N[C@H](C)c3ccc(F)cc3)ccc2nc1-c1ccccc1)CC(=O)O [compound 278, (R)-5-(7-(((R)-1-(4-fluorophenyl)ethyl)carbamoyl)-3-phenylquinoxalin-2-yl)-3-methylpentanoic acid] |
| 20.1 to 200 | CN(C(=O)c1ccc2nc(-c3ccc(Cl)cc3)c(CCCCC(=O)O)nc2c1)C1NC(=O)c2ccccc21 (stereo not shown) [compound 336, 5-(3-(4-chlorophenyl)-7-(methyl(3-oxoisoindolin-1-yl)carbamoyl)quinoxalin-2-yl)pentanoic acid] |
| 0.1 to 2 | O=C(O)CCCCc1nc2cc(C(=O)N3CC(c4cccc(Cl)c4)C3)ccc2nc1-c1ccc(Cl)cc1 [compound 425, 5-(3-(4-chlorophenyl)-7-(3-(3-chlorophenyl)azetidine-1-carbonyl)quinoxalin-2-yl)pentanoic acid] |
| 2.1 to 20 | O=C(O)CCCCc1nc2cc(C(=O)N[C@H]3CCCc4ccccc43)ccc2nc1-c1ccccc1 [compound 388, (S)-5-(3-phenyl-7-((1,2,3,4-tetrahydronaphthalen-1-yl)carbamoyl)quinoxalin-2-yl)pentanoic acid] |
| 2.1 to 20 | N#Cc1ccc(N2CCN(C(=O)c3ccc4nc(-c5ccc(Cl)cc5)c(CCCCC(=O)O)nc4c3)CC2)cc1 [compound 623, 5-(3-(4-chlorophenyl)-7-(4-(4-cyanophenyl)piperazine-1-carbonyl)quinoxalin-2-yl)pentanoic acid] |
| 2.1 to 20 | CC1(C)CC(NC(=O)c2ccc3nc(-c4ccc(Cl)cc4)c(CCCCC(=O)O)nc3c2)c2ccccc2O1 (stereo not shown) [compound 564, 5-(3-(4-chlorophenyl)-7-((2,2-dimethylchroman-4-yl)carbamoyl)quinoxalin-2-yl)pentanoic acid] |
| 20.1 to 200 | O=C(O)CCCCc1nc2cc(C(=O)N3CCC(N4CCCC4)CC3)ccc2nc1-c1ccc(Cl)cc1 [compound 339, 5-(3-(4-chlorophenyl)-7-(4-(pyrrolidin-1-yl)piperidine-1-carbonyl)quinoxalin-2-yl)pentanoic acid] |
| 2.1 to 20 | O=C(O)CCCCc1nc2cc(C(=O)NC3CC(=O)Nc4ccccc43)ccc2nc1-c1ccc(F)cc1 (stereo not shown) [compound 352, 5-(3-(4-fluorophenyl)-7-((2-oxo-1,2,3,4-tetrahydroquinolin-4-yl)carbamoyl)quinoxalin-2-yl)pentanoic acid] |
| 2.1 to 20 | O=C(O)CCCCc1nc2cc(C(=O)N3CCC4(CCCc5ccccc54)C3)ccc2nc1-c1ccccc1 (stereo not shown) [compound 297, 5-(7-(3,4-dihydro-2H-spiro[naphthalene-1,3′-pyrrolidin]-1′-ylcarbonyl)-3-phenylquinoxalin-2-yl)pentanoic acid] |
| 2.1 to 20 | N#Cc1ccc2c(c1)OCC[C@@H]2NC(=O)c1ccc2nc(-c3ccc(Cl)cc3)c(CCCCC(=O)O)nc2c1 [compound 333, (S)-5-(3-(4-chlorophenyl)-7-((7-cyanochroman-4-yl)carbamoyl)quinoxalin-2-yl)pentanoic acid.] |
| 2.1 to 20 | O=C(O)CCCCc1nc2cc(C(=O)N3CC4CCCC(C3)C4c3ccccc3)ccc2nc1-c1ccc(Cl)cc1 [compound 345, 5-(3-(4-chlorophenyl)-7-((1R,5S,9r)-9-phenyl-3-azabicyclo[3.3.1]nonane-3-carbonyl)quinoxa1in-2-yl)pentanoic acid] |
| 2.1 to 20 | Cc1nc(CN2CCN(C(=O)c3ccc4nc(-c5ccc(Cl)cc5)c(CCCCC(=O)O)nc4c3)CC2)cs1 [compound 670, 5-(3-(4-chlorophenyl)-7-(4-((2-methylthiazol-4-yl)methyl)piperazine-1-carbonyl)quinoxalin-2-yl)pentanoic acid] |
| 201 to 700 | O=C(O)CCCc1nc2cc(C(=O)N[C@@H]3CCOc4cc(F)ccc43)ccc2nc1-c1ccccc1 [compound 725, (R)-4-(7-((7-fluorochroman-4-yl)carbamoyl)-3-phenylquinoxalin-2-yl)butanoic acid] |
| 2.1 to 20 | C[C@H]1CN(c2ccc(F)cc2)CCN1C(=O)c1ccc2nc(-c3ccccc3)c(CCCCC(=O)O)nc2c1 [compound 516, (S)-5-(7-(4-(4-fluorophenyl)-2-methylpiperazine-1-carbonyl)-3-phenylquinoxalin-2-yl)pentanoic acid] |
| 0.1 to 2 | C[C@H](NC(=O)c1ccc2nc(-c3ccc(Cl)cc3)c(CCCCC(=O)O)nc2c1)c1ccc(F)c(F)c1 [compound 375, (S)-5-(3-(4-chlorophenyl)-7-((1-(3,4-difluorophenyl)ethyl)carbamoyl)quinoxalin-2-yl)pentanoic acid] |
| 2.1 to 20 | O=C(N[C@H](c1ccccc1)C(F)(F)F)c1ccc2nc(-c3ccc(Cl)cc3)c(CC3CCC(C(=O)O)C3)nc2c1 (stereo partly drawn) [compound 395, 3-((3-(4-chlorophenyl)-7-(((R)-2,2,2-trifluoro-1-phenylethyl)carbamoyl)quinoxalin-2-yl)methyl)cyclopentane-carboxylic acid] |
| 2.1 to 20 | C[C@H](NC(=O)c1ccc2nc(-c3ccc(F)cc3)c(CCC[C@H](C)C(=O)O)nc2c1)c1ccc(F)cc1 [compound 485, (S)-5-(3-(4-fluorophenyl)-7-(((S)-1-(4-fluorophenyl)ethyl)carbamoyl)quinoxalin-2-yl)-2-methylpentanoic acid] |
| 0.1 to 2 | O=C(O)CCCCc1nc2cc(C(=O)N3CC(c4ccc(Cl)cc4)C3)ccc2nc1-c1ccc(Cl)cc1 [compound 426, 5-(3-(4-chlorophenyl)-7-(3-(4-chlorophenyl)azetidine-1-carbonyl)quinoxalin-2-yl)pentanoic acid] |
| 20.1 to 200 | O=C(O)CCCCc1nc2cc(C(=O)N[C@H]3CC(=O)Nc4ccc(F)cc43)ccc2nc1-c1ccccc1 [compound 712, (S)-5-(7-((6-fluoro-2-oxo-1,2,3,4-tetrahydroquinolin-4-yl)carbamoyl)-3-phenylquinoxalin-2-yl)pentanoic acid] |
